pIC50: −log10 of the molar value.
How the values were obtained:
[1] = system: IL-6; assay: IL-6 secretion inhibition in LPS-treated THP-1 cells (ELISA); type: cell-based; conditions: Homo sapiens, compound 0.5 μM, LPS 500 ng/ml, 24 hours, read-out: THP1/IL6 (% inhib)
In short: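 Human monocytic THP-1 cells were pre-cultured 16 h at 37° C., then treated with compound at 0.5 μM final, followed by LPS at 500 ng/ml final. After 24 h, IL-6 and TNF-α in culture supernatant were quantified by ELISA with absorbance read at 450 nm.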

[2] = target: T1, CLK1 (Homo sapiens, UniProt P49759); assay: scanMAX Kinase panel (DiscoverX), % control; type: binding; conditions: <35% = active
T1 construct: purchased DiscoverX
T1 sequence (P49759 whole entry): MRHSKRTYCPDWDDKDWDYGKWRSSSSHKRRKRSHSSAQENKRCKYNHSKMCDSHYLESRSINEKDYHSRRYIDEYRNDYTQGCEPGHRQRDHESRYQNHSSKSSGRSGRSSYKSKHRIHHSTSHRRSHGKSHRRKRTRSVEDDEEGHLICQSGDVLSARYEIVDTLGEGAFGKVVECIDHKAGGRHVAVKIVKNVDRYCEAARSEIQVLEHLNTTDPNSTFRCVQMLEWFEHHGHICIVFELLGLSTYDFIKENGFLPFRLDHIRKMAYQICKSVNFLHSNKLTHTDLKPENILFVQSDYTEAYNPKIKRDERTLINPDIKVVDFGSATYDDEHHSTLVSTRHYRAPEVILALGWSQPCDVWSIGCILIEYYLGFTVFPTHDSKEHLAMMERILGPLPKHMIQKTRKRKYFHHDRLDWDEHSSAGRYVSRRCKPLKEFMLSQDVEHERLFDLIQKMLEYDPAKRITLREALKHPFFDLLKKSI
Protocol: (§1) Specifically, for Examples 162, 160, 105, 217, 205, 96, 207, 184, 206, 221, 238, and 237 selected among the example compounds of the present invention, it was decided to measure enzyme (kinase) selectivity by DiscoverX, and the experiment was conducted using a panel for scanMAX™ Kinase analysis. At this time, the concentration of the drug treated with the enzyme was 1 uM in DMSO, the control percentage (% control) was determined in the same way as in Equation 1 below, and the results were shown in Table 6 below. [formula] Here, the positive control refers to a compound showing a control percentage of 0%, and the negative control is DMSO, indicating a control percentage of 100%. Also, in the enzyme selectivity of the present invention, if the control percentage for each enzyme was <35% (i.e., less than 35%), it was determined to have activity against the relevant enzyme.

[3] = target: T2, ALK (Homo sapiens, UniProt Q9UM73); assay: scanMAX Kinase panel (DiscoverX), % control; type: binding; conditions: <35% = active
T2 construct: purchased DiscoverX
T2 sequence (Q9UM73 19-1620): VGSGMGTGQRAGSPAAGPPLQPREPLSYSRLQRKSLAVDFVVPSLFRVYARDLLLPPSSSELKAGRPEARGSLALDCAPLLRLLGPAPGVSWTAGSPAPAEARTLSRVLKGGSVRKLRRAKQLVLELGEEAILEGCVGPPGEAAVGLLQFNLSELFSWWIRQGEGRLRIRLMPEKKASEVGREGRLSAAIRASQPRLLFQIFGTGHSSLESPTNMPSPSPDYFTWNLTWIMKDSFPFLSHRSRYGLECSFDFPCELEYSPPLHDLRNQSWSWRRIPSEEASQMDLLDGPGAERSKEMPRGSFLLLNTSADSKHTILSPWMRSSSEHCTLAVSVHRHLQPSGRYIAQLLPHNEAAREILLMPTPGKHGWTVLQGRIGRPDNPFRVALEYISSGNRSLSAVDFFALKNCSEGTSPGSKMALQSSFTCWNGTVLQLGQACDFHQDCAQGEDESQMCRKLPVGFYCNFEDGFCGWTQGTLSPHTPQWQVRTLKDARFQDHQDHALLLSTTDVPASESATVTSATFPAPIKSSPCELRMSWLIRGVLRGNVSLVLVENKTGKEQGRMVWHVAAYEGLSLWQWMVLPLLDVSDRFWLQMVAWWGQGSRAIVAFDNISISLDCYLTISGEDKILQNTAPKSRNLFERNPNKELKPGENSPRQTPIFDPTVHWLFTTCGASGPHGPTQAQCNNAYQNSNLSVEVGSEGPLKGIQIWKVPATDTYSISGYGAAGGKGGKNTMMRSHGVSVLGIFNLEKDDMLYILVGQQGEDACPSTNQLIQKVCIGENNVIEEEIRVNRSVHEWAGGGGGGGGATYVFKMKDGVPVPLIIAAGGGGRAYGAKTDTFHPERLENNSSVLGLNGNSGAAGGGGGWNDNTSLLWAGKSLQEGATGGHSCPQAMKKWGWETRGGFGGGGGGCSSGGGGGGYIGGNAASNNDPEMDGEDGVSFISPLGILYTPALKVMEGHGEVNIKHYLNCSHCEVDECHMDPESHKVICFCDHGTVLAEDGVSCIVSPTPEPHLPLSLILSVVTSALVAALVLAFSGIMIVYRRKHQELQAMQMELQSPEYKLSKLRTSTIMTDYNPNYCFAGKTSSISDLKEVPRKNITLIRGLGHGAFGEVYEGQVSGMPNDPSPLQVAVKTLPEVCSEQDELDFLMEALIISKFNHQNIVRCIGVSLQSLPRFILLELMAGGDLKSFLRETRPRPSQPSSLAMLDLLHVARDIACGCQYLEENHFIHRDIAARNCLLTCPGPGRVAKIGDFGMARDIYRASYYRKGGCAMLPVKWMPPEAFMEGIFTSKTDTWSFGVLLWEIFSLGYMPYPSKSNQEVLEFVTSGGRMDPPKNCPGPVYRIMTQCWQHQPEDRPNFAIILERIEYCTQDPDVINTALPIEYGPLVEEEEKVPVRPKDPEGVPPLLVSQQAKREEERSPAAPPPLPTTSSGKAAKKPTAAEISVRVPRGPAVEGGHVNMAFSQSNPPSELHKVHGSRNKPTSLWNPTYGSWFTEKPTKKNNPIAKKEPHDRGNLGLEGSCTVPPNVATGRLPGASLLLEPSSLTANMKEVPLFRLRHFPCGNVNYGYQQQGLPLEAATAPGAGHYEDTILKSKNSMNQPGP
Protocol: as §1

[4] = target: T3, DYRK1B (Homo sapiens, UniProt Q9Y463); assay: scanMAX Kinase panel (DiscoverX), % control; type: binding; conditions: <35% = active
T3 construct: purchased DiscoverX
Protocol: as §1

[5] = target: T4, ALK (C1156Y) (Homo sapiens, UniProt Q9UM73, C1156Y); assay: scanMAX Kinase panel (DiscoverX), % control; type: binding; conditions: <35% = active
T4 construct: purchased DiscoverX
Protocol: as §1

[6] = target: T5, CLK3 (Homo sapiens, UniProt P49761); assay: scanMAX Kinase panel (DiscoverX), % control; type: binding; conditions: <35% = active
T5 construct: purchased DiscoverX
T5 sequence (P49761 whole entry): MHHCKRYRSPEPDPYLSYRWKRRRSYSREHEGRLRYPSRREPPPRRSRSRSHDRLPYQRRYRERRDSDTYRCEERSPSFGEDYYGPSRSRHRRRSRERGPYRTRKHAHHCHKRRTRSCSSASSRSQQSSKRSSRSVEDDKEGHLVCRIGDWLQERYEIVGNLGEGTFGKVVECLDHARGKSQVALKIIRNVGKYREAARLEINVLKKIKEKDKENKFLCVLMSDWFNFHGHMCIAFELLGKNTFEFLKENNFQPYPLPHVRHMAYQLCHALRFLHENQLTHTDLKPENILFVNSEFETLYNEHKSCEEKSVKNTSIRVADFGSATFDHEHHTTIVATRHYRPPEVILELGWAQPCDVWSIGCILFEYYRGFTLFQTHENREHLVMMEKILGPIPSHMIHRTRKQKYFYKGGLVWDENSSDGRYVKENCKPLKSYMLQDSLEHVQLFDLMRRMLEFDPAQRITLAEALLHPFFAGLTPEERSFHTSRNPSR
Protocol: as §1

[7] = target: T6, DYRK1A (Homo sapiens, UniProt Q13627); assay: scanMAX Kinase panel (DiscoverX), % control; type: binding; conditions: <35% = active
T6 construct: purchased DiscoverX
Protocol: as §1

[8] = target: T7, MYLK (Homo sapiens, UniProt Q15746); assay: scanMAX Kinase panel (DiscoverX), % control; type: binding; conditions: <35% = active
T7 construct: purchased DiscoverX
Protocol: as §1

[9] = target: T8, CLK4 (Homo sapiens, UniProt Q9HAZ1); assay: scanMAX Kinase panel (DiscoverX), % control; type: binding; conditions: <35% = active
T8 construct: purchased DiscoverX
Protocol: as §1

[10] = target: LRRK2 (G2019S) (Homo sapiens, UniProt Q5S007, G2019S); assay: scanMAX Kinase panel (DiscoverX), % control; type: binding; set-up: purchased DiscoverX; conditions: <35% = active
Sequence of LRRK2 (G2019S) (Q5S007 whole entry G2019S): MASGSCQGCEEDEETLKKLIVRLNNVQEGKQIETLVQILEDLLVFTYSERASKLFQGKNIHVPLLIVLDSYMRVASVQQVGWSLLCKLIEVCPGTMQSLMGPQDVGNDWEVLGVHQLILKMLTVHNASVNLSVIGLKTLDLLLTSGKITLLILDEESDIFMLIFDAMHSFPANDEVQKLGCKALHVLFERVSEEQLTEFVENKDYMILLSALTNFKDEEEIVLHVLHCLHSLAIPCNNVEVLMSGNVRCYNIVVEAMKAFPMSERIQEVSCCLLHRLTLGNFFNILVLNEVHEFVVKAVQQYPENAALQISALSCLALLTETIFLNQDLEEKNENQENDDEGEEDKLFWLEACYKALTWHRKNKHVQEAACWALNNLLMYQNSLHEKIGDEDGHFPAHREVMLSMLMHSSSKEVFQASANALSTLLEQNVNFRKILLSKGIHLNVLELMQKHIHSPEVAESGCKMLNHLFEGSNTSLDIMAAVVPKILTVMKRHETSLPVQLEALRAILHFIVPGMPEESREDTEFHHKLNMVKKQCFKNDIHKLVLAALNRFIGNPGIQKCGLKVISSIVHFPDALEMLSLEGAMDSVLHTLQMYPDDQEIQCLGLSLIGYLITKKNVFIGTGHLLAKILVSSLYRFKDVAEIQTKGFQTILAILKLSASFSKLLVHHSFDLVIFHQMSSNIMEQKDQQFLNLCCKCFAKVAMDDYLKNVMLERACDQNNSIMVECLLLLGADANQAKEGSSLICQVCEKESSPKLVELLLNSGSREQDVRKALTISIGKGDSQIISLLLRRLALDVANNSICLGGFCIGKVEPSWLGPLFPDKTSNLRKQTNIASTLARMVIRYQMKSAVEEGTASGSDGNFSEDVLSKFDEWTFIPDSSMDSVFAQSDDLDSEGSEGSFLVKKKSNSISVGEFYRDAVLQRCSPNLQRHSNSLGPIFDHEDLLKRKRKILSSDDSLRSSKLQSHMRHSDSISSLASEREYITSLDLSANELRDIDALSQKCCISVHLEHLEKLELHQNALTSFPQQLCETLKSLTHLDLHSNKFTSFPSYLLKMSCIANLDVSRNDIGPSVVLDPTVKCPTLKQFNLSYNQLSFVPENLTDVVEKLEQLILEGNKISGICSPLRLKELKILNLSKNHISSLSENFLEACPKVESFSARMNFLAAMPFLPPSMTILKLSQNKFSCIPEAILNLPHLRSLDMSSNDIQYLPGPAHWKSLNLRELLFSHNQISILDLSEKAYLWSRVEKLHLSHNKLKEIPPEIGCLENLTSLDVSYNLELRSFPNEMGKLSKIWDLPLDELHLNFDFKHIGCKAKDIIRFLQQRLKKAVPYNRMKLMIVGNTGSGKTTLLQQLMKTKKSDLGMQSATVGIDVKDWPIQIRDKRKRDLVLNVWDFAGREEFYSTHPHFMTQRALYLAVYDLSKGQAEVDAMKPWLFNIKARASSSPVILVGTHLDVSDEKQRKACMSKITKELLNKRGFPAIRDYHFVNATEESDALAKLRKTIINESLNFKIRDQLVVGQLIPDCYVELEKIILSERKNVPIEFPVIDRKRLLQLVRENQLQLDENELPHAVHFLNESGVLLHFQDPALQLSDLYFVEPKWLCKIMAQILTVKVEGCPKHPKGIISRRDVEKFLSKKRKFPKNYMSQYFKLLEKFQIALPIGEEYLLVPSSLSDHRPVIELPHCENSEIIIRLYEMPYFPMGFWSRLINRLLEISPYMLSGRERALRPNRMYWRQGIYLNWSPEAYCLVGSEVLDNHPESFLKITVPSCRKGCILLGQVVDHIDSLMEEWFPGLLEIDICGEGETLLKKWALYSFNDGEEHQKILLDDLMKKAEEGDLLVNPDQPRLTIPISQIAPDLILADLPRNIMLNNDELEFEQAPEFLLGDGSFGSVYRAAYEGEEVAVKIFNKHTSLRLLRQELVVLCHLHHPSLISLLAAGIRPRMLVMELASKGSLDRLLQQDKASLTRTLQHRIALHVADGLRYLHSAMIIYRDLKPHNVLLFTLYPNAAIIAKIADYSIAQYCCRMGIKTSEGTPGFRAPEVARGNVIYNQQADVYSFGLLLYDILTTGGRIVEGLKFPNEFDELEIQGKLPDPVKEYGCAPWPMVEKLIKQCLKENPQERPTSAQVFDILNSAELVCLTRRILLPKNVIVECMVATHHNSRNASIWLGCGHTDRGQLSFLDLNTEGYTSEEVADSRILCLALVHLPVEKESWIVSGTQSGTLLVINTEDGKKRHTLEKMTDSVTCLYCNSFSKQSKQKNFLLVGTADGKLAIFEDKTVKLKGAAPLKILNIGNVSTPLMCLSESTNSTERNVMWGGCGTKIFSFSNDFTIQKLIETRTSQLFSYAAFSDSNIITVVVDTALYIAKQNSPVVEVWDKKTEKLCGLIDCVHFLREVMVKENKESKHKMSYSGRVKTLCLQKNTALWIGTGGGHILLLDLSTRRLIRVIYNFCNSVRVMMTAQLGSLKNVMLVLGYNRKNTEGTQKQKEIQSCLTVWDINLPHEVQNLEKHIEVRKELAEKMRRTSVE
Protocol: as §1

[11] = target: LRRK2 (Homo sapiens, UniProt Q5S007); assay: scanMAX Kinase panel (DiscoverX), % control; type: binding; set-up: purchased DiscoverX; conditions: <35% = active
Sequence of LRRK2 (Q5S007 whole entry): as the sequence (Q5S007 whole entry G2019S) above, with S2019G counted along it
Protocol: as §1

[12] = target: T9, TTK (Homo sapiens, UniProt P33981); assay: scanMAX Kinase panel (DiscoverX), % control; type: binding; set-up: purchased DiscoverX; conditions: <35% = active
T9 sequence (P33981 1-857): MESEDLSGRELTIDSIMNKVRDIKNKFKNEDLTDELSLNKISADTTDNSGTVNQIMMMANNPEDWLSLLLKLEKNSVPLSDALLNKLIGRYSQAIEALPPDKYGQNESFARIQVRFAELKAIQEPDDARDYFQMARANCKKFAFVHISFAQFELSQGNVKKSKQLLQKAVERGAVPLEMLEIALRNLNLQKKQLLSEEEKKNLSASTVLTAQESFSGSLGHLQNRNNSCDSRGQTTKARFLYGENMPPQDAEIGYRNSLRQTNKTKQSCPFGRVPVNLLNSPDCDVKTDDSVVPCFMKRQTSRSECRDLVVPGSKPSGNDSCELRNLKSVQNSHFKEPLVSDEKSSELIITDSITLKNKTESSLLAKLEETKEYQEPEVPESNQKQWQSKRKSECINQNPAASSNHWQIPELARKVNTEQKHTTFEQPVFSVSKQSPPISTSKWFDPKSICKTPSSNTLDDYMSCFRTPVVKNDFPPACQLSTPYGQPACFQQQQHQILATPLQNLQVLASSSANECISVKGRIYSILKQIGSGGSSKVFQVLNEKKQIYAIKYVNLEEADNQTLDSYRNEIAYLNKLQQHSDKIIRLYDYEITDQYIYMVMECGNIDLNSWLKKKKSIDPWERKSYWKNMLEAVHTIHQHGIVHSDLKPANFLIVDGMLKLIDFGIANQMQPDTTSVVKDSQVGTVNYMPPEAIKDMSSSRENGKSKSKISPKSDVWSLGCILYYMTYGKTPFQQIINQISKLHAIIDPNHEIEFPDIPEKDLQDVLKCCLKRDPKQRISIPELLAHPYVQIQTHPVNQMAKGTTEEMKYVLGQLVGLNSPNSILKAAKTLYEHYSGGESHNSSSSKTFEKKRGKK
Protocol: as §1

[13] = target: T10, LRRK2, LRRK2 (G2019S), DYRK1, CLK1 and TTK kinases (Homo sapiens, UniProt Q13627); assay: Enzyme IC50 by Kinase HotSpot service (Reaction Biology Corporation), values marked with *; type: biochemical; conditions: DYRK1, ATP 10 uM
T10 construct: other: DYRK1; Kinase HotSpot service (Reaction Biology), ATP 10 uM
In short: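 Radiometric-service kinase assays (Reaction Biology HotSpot protocol) run at 10 uM ATP under uniform conditions. Compounds tested as 3-fold dilution series from a top concentration of […] to give IC50.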

Row | remaining binding at 1 µM [2] | remaining binding at 1 µM [3] | remaining binding at 1 µM [4] | remaining binding at 1 µM [5] | remaining binding at 1 µM [6] | remaining binding at 1 µM [7] | remaining binding at 1 µM [8] | remaining binding at 1 µM [9] | remaining binding at 1 µM [10] | remaining binding at 1 µM [11] | remaining binding at 1 µM [12] | pIC50 [13] | Structure (SMILES) | inhibition at 0.5 µM [1]
1 | 5.6% | 5.9% | 0% | 1.8% | 66% | 0.4% | 5.3% | 0.55% | 16% | 20% | 4.8% | – | COCCNc1cc(Nc2ccc(P3(=O)CCN(C4CC4)CC3)cc2OC)nc2[nH]cc(C(F)(F)F)c12 [Example 207, 1-cyclopropyl-4-(3-methoxy-4-((4-((2-methoxyethyl)amino)-3-(trifluoromethyl)-1H-pyrrolo[2,3-b]pyridin-6-yl)amino)phenyl)-1,4-azaphosphinane 4-oxide] | 41.7%
2 | 18% | 1.4% | 2.5% | 1.3% | 37% | 0.25% | 0% | 0.25% | 17% | 18% | 5.5% | – | CNc1cc(Nc2ccc(P3(=O)CCN(C4CC4)CC3)cc2OC)nc2[nH]cc(C(F)(F)F)c12 [Example 205, 1-cyclopropyl-4-(3-methoxy-4-((4-(methylamino)-3-(trifluoromethyl)-1H-pyrrolo[2,3-b]pyridin-6-yl)amino)phenyl)-1,4-azaphosphinane 4-oxide] | –
3 | 9.7% | 9.5% | 3% | 10% | 27% | 1.3% | 37% | 0.3% | 1.9% | 4.5% | 2.7% | – | CCNc1cc(Nc2ccc(S(=O)(=O)N3CCC(N4CCOCC4)CC3)c3c2OCCO3)nc2[nH]cc(C(F)(F)F)c12 [Example 96, N^4-ethyl-N^6-(8-((4-morpholonopiperidin-1-yl)sulfonyl)-2,3-dihydrobenzo [b] [1,4]dioxin-5-yl)-3-(trifluoromethyl)-1H-pyrrolo[2,3-b]pyridine-4,6-diamine] | –
4 | 2.4% | 67% | 0.7% | 42% | 56% | 1.9% | 33% | 0.35% | 38% | 48% | 4.1% | > 7.00 | O=C(c1ccc(Nc2cc(C3CC3)c3c(C(F)(F)F)c[nH]c3n2)c2c1CCO2)N1CC[C@@H](N2CCOCC2)C1 [Example 238, (R)-(7-((4-cyclopropyl-3-(trifluoromethyl)-1H-pyrrolo[2,3-b]pyridin-6-yl)amino)-2,3-dihydrobenzofuran-4-yl)(3-morpholinopyrrolidin-1-yl)methanone] | –
5 | 2.4% | 3.8% | 1.4% | 3.9% | 19% | 0% | 1.8% | 8.2% | 1% | 1% | 3% | – | CNc1cc(Nc2ccc(C(=O)N3CC[C@H](N4CCOCC4)C3)c3c2OCC3)nc2[nH]cc(C(F)(F)F)c12 [Example 217, (S)-(7-((4-(methylamino)-3-(trifluoromethyl)-1H-pyrrolo[2,3-b]pyridin-6-yl)amino)-2,3-dihydrobenzofuran-4-yl)(3-morpholinopyrrolidin-1-yl)methanone] | –
6 | 13% | 0.65% | 0% | 0.9% | 13% | 0.35% | 0% | 0.55% | 0.35% | 2.8% | 3.4% | – | CCCNc1cc(Nc2ccc(C(=O)N3CCC(N4CCOCC4)CC3)c3c2OCCO3)nc2[nH]cc(C(F)(F)F)c12 [Example 162, (4-morpholinopiperidin-1-yl)(8-((4-(propylamino)-3-(trifluoromethyl)-1H-pyrrolo[2,3-b]pyridin-6-yl)amino)-2,3-dihydrobenzo[b] [1,4]dioxin-5-yl)methanone] | –
7 | 13% | 0.65% | 0% | 0.9% | 13% | 0.35% | 0% | 0.55% | 0.35% | 2.8% | 3.4% | – | CNc1cc(Nc2ccc(C(=O)N3CCC(N4CCOCC4)CC3)c3c2OCCO3)nc2[nH]cc(C(F)(F)F)c12 [Example 160, (8-((4-(methylamino)-3-(trifluoromethyl)-1H-pyrrolo[2,3-b]pyridin-6-yl)amino)-2,3-dihydrobenzo [b] [1,4]dioxin-5-yl)(4-morpholinopiperidin-1-yl)methanone] | –
8 | 1.5% | 0.3% | 0.9% | 2% | 5.9% | 0% | 1.3% | 5.5% | 0% | 0% | 2.6% | – | CCNc1cc(Nc2ccc(C(=O)N3CCC(N4C[C@@H]5C[C@H]4CO5)CC3)c3c2OCC3)nc2[nH]cc(C(F)(F)F)c12 [Example 105, (4-((1S,4S)-2-oxa-5-azabicyclo[2.2.1]heptan-5-yl)piperidin-1-yl)(7-((4-(ethylamino)-3-(trifluoromethyl)-1H-pyrrolo[2,3-b]pyridin-6-yl)amino)-2,3-dihydrobenzofuran-4-yl)methanone] | 33.2%
9 | 8.5% | 9% | 0% | 5.3% | 91% | 2% | 3% | 1.2% | 28% | 23% | 0.65% | – | CCNc1cc(Nc2ccc(P3(=O)CCN(C4CC4)CC3)cc2OC)nc2[nH]cc(C(F)(F)F)c12 [Example 206, 1-cyclopropyl-4-(4-((4-(ethylamino)-3-(trifluoromethyl)-1H-pyrrolo[2,3-b]pyridin-6-yl)amino)-3-methoxyphenyl)-1,4-azaphosphinane 4-oxide] | –

Source: patent publication US12240844B2 (Voronoi, Inc., priority 2019, dated 2025)
